Assay results taken from paper PMC5794198, “Inhibitors of Trypanosoma cruzi Sir2 related protein 1 as potential drugs against Chagas disease” (PLoS Neglected Tropical Diseases, 2018).
Entries after “also recorded” stand apart in the source; their conditions may differ.

Tests used:
[1] = tested on: T. cruzi epimastigotes, wild-type (WT); test: T. cruzi epimastigote resazurin viability assay, wild-type; format: cell-based, Trypanosoma cruzi; conditions: CL-Brener, 64 h + 6 h resazurin; means ± SD (n = 4)
Method: T. cruzi epimastigotes were seeded at 1.25 x 10^6 cells/mL in a 96-well plate in the presence of varying concentrations of test compounds. Following a 64-hour incubation, 15 μL of a resazurin solution (Sigma-Aldrich; 1.1 mg/mL in PBS). […] Each assay was performed in at least triplicate in parallel to the known trypanocidal agent nifurtimox.

Hepatocytes [2] = test: HCS injury score panel in primary hepatocytes; format: cell-based
Method: In vitro assays were also performed in primary cells (hepatocytes and neurons) to evaluate BNIPSpd (9) potential toxicity: (a) host cell nuclei counting after HOECHST staining, (b) viability by measuring the metabolism of WST-8 probe, (c) apoptosis induction through caspase 3/7 activation, (d) evaluation of mitochondrial dysfunction by measuring the membrane potential using TMRM probe, (e) membrane integrity by measuring the extracellular LDH, (f) DNA damage by histone H2AX phosphorylation (exclusively in hepatocytes) and (g) imaging of neurite outgrowth (exclusively in neurons).
The assays were performed 24 hrs after cell collection and isolation. […] Then, absorbance at 450 nm was measured in order to analyse cell viability (WST-8). Cells were washed three times and analysed using the automatic fluorescence microscope BD Pathway 855. […] Data were analysed with AttoVision (Becton Dickinson). […] LDH release was measured in mU/L in culture media obtained from cells subjected to treatments for 24 hrs, by measuring the released LDH rate of oxidation of NADH to NAD^+ at 340 nm using Synergy 2 from BioTech.
DNA damage was evaluated by washing cells with PBS and fixation using paraformaldehyde 3% in PBS for 15 mins. […] To determine the DNA damage, intensity in the nuclei was analyzed using AttoVision software (Becton Dickinson). […]

Hepatocytes [3] = test: MTT cytotoxicity on hepatocytes; format: cell-based; conditions: MTT
Method: (§1) To evaluate toxicity towards mammalian cell lines (hepatocytes (Seralab), neurons and MDCK cells (ATCC); a renal cell line from dogs), all the compounds were assayed with MTT [66]. Additionally, for cardiotoxicity evaluation, where toxic effects in cardiomyocytes could be affecting their function before being lethal, a hERG assay was performed according to the manufacturer’s protocol Predictor hERG Fluorescence Polarization Assay (Invitrogen). Briefly, inhibition of hERG channel was analysed by competition of BNIPSpd and a high-affinity red fluorescent hERG channel ligand. BNIPSpd (9) was mixed with the ligand and membranes containing hERG channel, incubated for 2 hrs at RT and the fluorescence polarization was measured using 530 / 590 nm ex/em filters using the Synergy 2 plate reader (Biotek).

[4] = MTT cytotoxicity on hepatocytes; format: cell-based; conditions: hepatocytes, CC50 cell line / EC50 T. cruzi; read-out: Selectivity Index, hepatocytes
Method: as §1

[5] = Snapshot pharmacokinetics in blood after intravenous injection; format: in vivo, BALB/c mice; conditions: 5 mg/kg intravenous
Method: The pharmacokinetic profile of BNIPSpd was determined following intravenous injection of 5 mg/kg in BALB/c mice. The blood was collected from tail veins after 0, 5, 15, 30, 45 min, 1, 3, 24, 48 and 72 h of drug administration. Blood concentrations of the drug were analysed by UHPLC- ESI-MS/MS.
Supplementary file pntd.0006180.s006.tif: S5 Fig In vivo efficacy testing of BNIPSpd (9). A) Mice were infected with 10^4 Luc^+ trypomastigotes by intraperitoneal injection. Treatments (BZN, benznidazole at 100 mg/kg/day per os, and BNIPSpd (9) at 5 mg/kg/day by intravenous injection) were initiated 7 days after infection, as well as the respective controls (KP, Kolliphor HS 15 20% per os and DMSO 10% by intravenous injection). […] In the lower panel, bioluminescence signal of whole mice represented in average radiance (photons/sec/cm^2/sr) quantified before and after treatment. […] B) Snapshot Pharmacokinetics of BNIPSpd (9) in BALB/c mice by quantification of BNIPSpd (9) in the blood of mice by UHPLC-MS/MS ESI+ at different time-points after administration of a 5 mg/kg dose by intravenous injection. […] The dashed line represents the value of EC50 for BNIPSpd (9) in the in vitro assay against T. cruzi amastigotes, and the dotted line represents the lower limit of quantification of the technique. […]

Gastric stability = format: in vitro ADME

Q: For `O=C1c2cccc3cccc(c23)C(=O)N1CCCNCCCCNCCCNCCCN1C(=O)c2cccc3cccc(c23)C1=O` [Compound 9, BNIP Spermidine], which “EC50 against T. cruzi epimastigotes WT” value [1] is on record?
A: moderate activity

Q: What about the “Injury score for hepatocytes” value (Hepatocytes [2]; at 50 μM) of the same molecule?
A: low injury (low injury (1 to <5))

Q: And the “Injury score for hepatocytes” value (Hepatocytes [2]; combined score of cytotoxicity panel, 24 hrs)?
A: low injury (low injury (1 to <5))

Q: And the “Hepatotoxicity (Hepatocytes) cytotoxicity” value (Hepatocytes [3])?
A: ≥ 3.1 µM

Q: What about the selectivity ratio [4] of the same molecule?
A: ~1

Q: What about the “Highest plasma concentration detected” value ([5]; at the 5 min time-point) of the same molecule?
A: 1.70 µM

Q: And the “Blood level after the 3 h time-point” value ([5]; 3 h up to 72 h, lower limit of quantification 8.1 nM, listed as BNIPSpd (9))?
A: below the level of detection; also recorded: no longer detected

Q: And the Gastric stability (Gastric stability)?
A: 100%
